Laboratory results taken from PubChem BioAssay (NCI).
Values joined by “and” are separate entries in the source; they are usually repeats but may differ in a detail not shown here. Identical values can stand only once.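 Step 1: Grow cells in 96-well plates. Step 2: Expose to compound for 48 hours at 5 concentrations. Step 3: Interpolate endpoints linearly; if unreached, use highest concentration. GI50 marks 50% less growth. Definition used: TGI = concentration required for complete inhibition of growth.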

How the values were obtained:
Assay in all cases: NCI tumour cell line growth inhibition, 48 h
[1] = tested on: SK-OV-3 ovarian
[2] = tested on: SR leukemia
[3] = tested on: HCT-116 colon
[4] = tested on: UO-31 renal
[5] = tested on: KM12 colon
[6] = tested on: BT-549 breast
[7] = tested on: A549 NSCLC
[8] = tested on: PC-3 prostate
[9] = tested on: MALME-3M melanoma
[10] = tested on: NCI-H460 lung

Structure (SMILES): Cc1cc2c(cc1C)[n+](=O)c(C(=O)/C=C/c1ccc3c(c1)OCO3)c(C)n2[O-]
- TGI [1]: 52.2 µM
- TGI [2]: > 100 µM
- TGI [3]: > 100 µM
- TGI [4]: > 100 µM
- TGI [5]: > 100 µM
- TGI [6]: > 100 µM
- TGI [7]: > 100 µM
- TGI [8]: > 100 µM
- TGI [9]: > 100 µM
- TGI [10]: > 100 µM

Structure (SMILES): O=P(O)(O)OCC1OC(n2cnc3c(NCc4ccco4)ncnc32)C(O)C1O (stereo unspecified)
- GI50 [1]: 2.34 µM
- TGI [1]: 8.73 µM
- GI50 [2]: 1.11 µM
- TGI [2]: 3.93 µM
- GI50 [3]: 0.41 µM
- TGI [3]: 1.85 µM
- GI50 [4]: 0.993 µM
- TGI [4]: > 26.5 µM
- GI50 [5]: 4.44 µM
- TGI [5]: > 42.6 µM
- GI50 [6]: 0.575 µM
- TGI [6]: 3.85 µM
- GI50 [7]: 2.73 µM
- TGI [7]: > 37.8 µM
- GI50 [8]: 0.927 µM
- TGI [8]: 12.3 µM
- GI50 [9]: 5.09 µM
- TGI [9]: 40.9 µM
- GI50 [10]: 3.04 µM
- TGI [10]: 21.4 µM

Structure (SMILES): CCC#CC[C@H](O)C/C=C1/C(=O)C=C[C@@H]1C/C=C\CCCC(=O)OC
- GI50 [1]: 3.21 µM
- TGI [1]: 10.2 µM
- GI50 [2]: 0.278 µM
- TGI [2]: 38.2 µM
- GI50 [3]: 0.235 µM
- TGI [3]: 1.1 µM
- GI50 [4]: 0.864 µM
- TGI [4]: 1.66 µM
- GI50 [6]: 1.22 µM
- TGI [6]: 3.04 µM
- GI50 [7]: 1.6 µM
- TGI [7]: 5.52 µM
- GI50 [8]: 1.42 µM
- TGI [8]: 5.25 µM
- GI50 [9]: 1.88 µM
- TGI [9]: 8.42 µM
- GI50 [10]: 1.31 µM
- TGI [10]: 3.55 µM

Structure (SMILES): COc1ccc(-c2nsc3c2NC(=O)CC3c2ccc3c(c2)OCCO3)cc1 (stereo unspecified)
- GI50 [1]: 0.476 µM
- TGI [1]: 8.46 µM
- GI50 [2]: 0.301 µM
- TGI [2]: > 100 µM
- GI50 [3]: 0.526 µM
- TGI [3]: > 100 µM
- GI50 [4]: 2.19 µM
- TGI [4]: > 100 µM
- GI50 [5]: 0.521 µM
- TGI [5]: > 100 µM
- GI50 [6]: 0.674 µM
- TGI [6]: > 100 µM
- GI50 [7]: 0.603 µM
- TGI [7]: > 100 µM
- GI50 [8]: 0.528 µM
- TGI [8]: > 100 µM
- GI50 [9]: 0.336 µM
- TGI [9]: > 100 µM
- GI50 [10]: 0.396 µM
- TGI [10]: > 46 µM

Structure (SMILES): COc1ccc(OC)c(NC(=O)c2cccc(NC3=C(Cl)C(=O)N(Cc4ccccc4)C3=O)c2)c1
- GI50 [1]: > 100 µM
- TGI [1]: > 100 µM
- GI50 [2]: 7.8 µM
- TGI [2]: > 87.6 µM
- GI50 [3]: > 86.2 µM
- TGI [3]: > 100 µM
- GI50 [4]: > 90.3 µM
- TGI [4]: > 100 µM
- GI50 [5]: > 100 µM
- TGI [5]: > 100 µM
- GI50 [6]: 18.3 µM
- TGI [6]: > 100 µM
- GI50 [7]: > 100 µM
- TGI [7]: > 100 µM
- GI50 [8]: 38.2 µM
- TGI [8]: > 100 µM
- GI50 [9]: > 49.3 µM
- TGI [9]: > 86.4 µM
- GI50 [10]: > 58.1 µM
- TGI [10]: > 100 µM

Structure (SMILES): COc1ccc(C(C#N)=C2C=CC(=NO)C=C2)cc1
- GI50 [1]: 29.6 µM
- TGI [1]: 67.5 µM
- GI50 [2]: 3.53 µM
- TGI [2]: > 100 µM
- GI50 [3]: 2.27 µM
- TGI [3]: 5.55 µM
- GI50 [4]: 4.23 µM
- TGI [4]: 14.6 µM
- GI50 [5]: 1.79 µM
- TGI [5]: 4.04 µM
- GI50 [6]: 14.4 µM
- TGI [6]: 29 µM
- GI50 [7]: 16.5 µM
- TGI [7]: 39.8 µM
- GI50 [8]: 3.74 µM
- TGI [8]: 17.1 µM
- GI50 [9]: 12.4 µM
- TGI [9]: 27.5 µM
- GI50 [10]: 3.17 µM
- TGI [10]: 12 µM

Structure (SMILES): CCCCCCCN(CCCCCCC)C(=N)c1ccnc2ccccc12
- GI50 [1]: 1.64 µM
- TGI [1]: 3.14 µM
- GI50 [2]: 1.01 µM
- TGI [2]: 2.96 µM
- GI50 [4]: 1.09 µM
- TGI [4]: 2.41 µM
- GI50 [5]: 1.82 µM
- TGI [5]: 3.49 µM
- GI50 [6]: 1.36 µM
- TGI [6]: 2.74 µM
- GI50 [7]: 1.77 µM
- TGI [7]: 3.41 µM
- GI50 [8]: 1.39 µM
- TGI [8]: 2.96 µM
- GI50 [9]: 1.62 µM
- TGI [9]: 3.37 µM
- GI50 [10]: 1.69 µM
- TGI [10]: 3.27 µM

Structure (SMILES): CN(C)C[C@H]1CCn2c(c(C3=C(c4cn(C)c5ccccc45)C(=O)NC3=O)c3ccccc32)C1
- GI50 [1]: 5.17 µM
- TGI [1]: 11.5 µM
- GI50 [2]: 4.26 µM
- TGI [2]: 11.1 µM
- GI50 [3]: 3.47 µM
- TGI [3]: 7.27 µM
- GI50 [4]: 3.45 µM
- TGI [4]: 7.31 µM
- GI50 [5]: 4.57 µM
- TGI [5]: 8.66 µM
- GI50 [6]: 4.83 µM
- TGI [6]: 9.53 µM
- GI50 [7]: 5.11 µM
- TGI [7]: 11.7 µM
- GI50 [8]: 3.92 µM
- TGI [8]: 8.56 µM
- GI50 [9]: 4.24 µM
- TGI [9]: 8.56 µM
- GI50 [10]: 4.86 µM
- TGI [10]: 9.55 µM

Structure (SMILES): CC(CN(C)C)S(=O)(=O)c1ccc(-c2cnc(N)c(C(=O)Nc3ccccc3)n2)cc1 (stereo unspecified)
- GI50 [1]: 6.04 µM
- TGI [1]: > 54.5 µM
- GI50 [2]: 1.39 µM
- TGI [2]: 8.53 µM
- GI50 [3]: 4.88 µM
- TGI [3]: 21.2 µM
- GI50 [4]: 4.78 µM
- TGI [4]: 28.7 µM
- GI50 [5]: 11.1 µM
- TGI [5]: 28.7 µM
- GI50 [6]: 6.43 µM
- TGI [6]: 27.2 µM
- GI50 [7]: 2.86 µM
- TGI [7]: > 46.1 µM
- GI50 [8]: 10.9 µM
- TGI [8]: > 73.8 µM
- GI50 [9]: 8.16 µM
- TGI [9]: 26.6 µM
- GI50 [10]: 2.95 µM
- TGI [10]: 22.2 µM

Structure (SMILES): CC(=O)O[C@@]12CO[C@@H]1C[C@H](O)[C@@]1(C)C(=O)[C@H](O)C3=C(C)[C@@H](OC(=O)[C@H](O)[C@@H](NC(=O)OC(C)(C)C)c4ccccc4)C[C@@](O)([C@@H](OC(=O)c4ccccc4)C12)C3(C)C (stereo partly specified)
- GI50 [1]: < 0.005 µM
- TGI [1]: 50 µM and 72.6 µM
- GI50 [2]: < 0.005 µM
- TGI [2]: 46.3 µM and 14.7 µM
- GI50 [3]: < 0.005 µM
- TGI [3]: 50 µM and > 100 µM
- GI50 [4]: 0.372 µM and 0.192 µM
- TGI [4]: 50 µM and 81.8 µM
- GI50 [5]: < 0.005 µM
- TGI [5]: 50 µM and 27.7 µM
- TGI [6]: 0.0338 µM
- GI50 [7]: < 0.005 µM
- TGI [7]: 50 µM and > 100 µM
- GI50 [8]: < 0.005 µM and 0.0218 µM
- TGI [8]: 50 µM and 80.8 µM
- GI50 [9]: 11.3 µM
- TGI [9]: 29.6 µM
- GI50 [10]: < 0.005 µM
- TGI [10]: 20.1 µM and > 100 µM

Structure (SMILES): C=C(C)[C@@H]1C/C=C(/CO)CC[C@H]2O[C@]2(C)CC/C=C(\C)CC1
- GI50 [2]: 17.2 µM
- TGI [2]: 38.6 µM
- GI50 [3]: 19.3 µM
- TGI [3]: 38.3 µM
- GI50 [4]: 13.6 µM
- TGI [4]: 29.9 µM
- GI50 [5]: 16.1 µM
- TGI [5]: 32.4 µM
- GI50 [6]: 17.5 µM
- TGI [6]: 34.7 µM
- GI50 [7]: 16.1 µM
- TGI [7]: 50.3 µM
- GI50 [8]: 11.8 µM
- TGI [8]: 30.9 µM
- GI50 [9]: 12.9 µM
- TGI [9]: 28.5 µM
- GI50 [10]: 11.5 µM
- TGI [10]: 27 µM

Structure (SMILES): O=C1CSC(c2ccc(-c3nc4ccccc4[nH]3)cc2)=N1
- GI50 [1]: > 50 µM
- TGI [1]: > 50 µM
- GI50 [2]: 5.7 µM
- TGI [2]: > 50 µM
- GI50 [3]: 18.6 µM
- TGI [3]: > 50 µM
- GI50 [4]: 19.8 µM
- TGI [4]: > 50 µM
- GI50 [5]: 22.8 µM
- TGI [5]: > 50 µM
- GI50 [6]: 42.4 µM
- TGI [6]: > 50 µM
- GI50 [7]: 18.8 µM
- TGI [7]: > 50 µM
- GI50 [8]: > 50 µM
- TGI [8]: > 50 µM
- GI50 [10]: 3.27 µM
- TGI [10]: > 50 µM
